The target of one assay is T1, SPL (Mus musculus, UniProt Q8R0X7).
T1 construct: from tissue; host or cells: thymus of FVB mice
T1 sequence (Q8R0X7 1-568): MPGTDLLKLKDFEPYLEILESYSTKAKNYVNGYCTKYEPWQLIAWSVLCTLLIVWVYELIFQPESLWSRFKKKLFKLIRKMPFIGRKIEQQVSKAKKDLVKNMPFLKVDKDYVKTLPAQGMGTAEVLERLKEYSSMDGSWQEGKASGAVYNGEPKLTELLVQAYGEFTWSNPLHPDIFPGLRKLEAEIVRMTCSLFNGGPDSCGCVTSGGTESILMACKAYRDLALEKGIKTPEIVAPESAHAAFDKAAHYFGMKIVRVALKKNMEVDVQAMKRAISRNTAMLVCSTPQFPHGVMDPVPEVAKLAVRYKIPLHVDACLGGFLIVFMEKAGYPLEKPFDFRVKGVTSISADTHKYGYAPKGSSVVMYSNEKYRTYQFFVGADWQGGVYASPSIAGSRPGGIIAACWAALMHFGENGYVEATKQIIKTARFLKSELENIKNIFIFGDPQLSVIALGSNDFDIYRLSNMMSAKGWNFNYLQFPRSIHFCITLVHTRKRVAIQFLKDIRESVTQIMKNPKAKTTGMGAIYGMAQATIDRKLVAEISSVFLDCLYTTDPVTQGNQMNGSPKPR
In words: SPL activity in thymic tissue after FTY720 administration in vivo. Details: species or system FVB mice. As to conditions: for SPL enzyme inhibition in tissue homogenates: animals treated with FTY720 for 24 hours. Here is the method:
One mg/kg FTY720 was administered by peritoneal injection to FVB mice at time zero. Mice were euthanized at the indicated times, and SPL activity in thymic tissue was determined.
Drug treatments and leukocyte/lymphocyte counts: Four-week old FVB or C3H mice were obtained from Charles River Laboratories (Wilmington, Mass.). Animals were maintained in a pathogen-free facility in microisolator cages. Mice were anaesthetized with isoflurane inhalation, and a single dose of FTY720 (at 1 or 3 mg/kg) or GT11 (at 1, 10 or 100 mg/kg) in sterile water was injected intraperitoneally at time zero. Blood counts were determined by Coulter counter (Coulter Instruments, Hialeah, Fla.) and by manual differential counting. Mice were euthanized by CO2 inhalation at various time points post-injection, followed by tissue harvest. All animal studies were performed in accordance with approved CHORI IACUC protocols.
SPL enzyme assay: Tissues were homogenized by sonication in 9 volumes of ice-cold homogenization buffer (5 mM MOPS pH 7.5, 1 mM DTT, 1 mM EDTA, 0.25 M sucrose, and 5 micrograms/ml each chymostatin, leupeptin, pepstatin A and antipain). SPL assays were conducted using 50 micrograms protein per assay and radioactive [4,5 ^3H]DHS1P substrate, as described previously (Reiss et al., (2004) J Biol Chem 279, 1281-1290). For in vitro FTY720 and FTY720-P experiments, drug was incubated with whole cell extracts prepared from HEK293 cells infected with an adenoviral vector expressing human SPL. These extracts contained approximately 200 picomoles/mg protein/minute SPL activity. Drug was incubated with extracts for 30 minutes, followed by addition of extracts to reaction buffer and substrate to initiate the reaction.
Inhibition of SPL by FTY720 in vivo—The effect on SPL enzyme activity of FTY720 administration was tested. Four-week old female FVB mice were given 1 mg/kg FTY720 by intraperitoneal injection, and tissue SPL activity in thymus was assessed over time. […] SPL inhibition occurred concomitantly with lymphopenia, and was consistent with the timing of lymphopenia reported previously (Chiba et al., (1998) J Immunol 160, 5037-5044) (Table 1).
To address whether the inhibition of SPL activity in homogenates of tissues isolated from FTY720 treated animals was reversible, tissue SPL activity was measured in the presence of increasing amounts of non-radiolabeled DHS1P substrate.

Assay [1] deals with human SPL luciferase reporter construct. In words: SPL gene expression, human SPL luciferase reporter in HEK293 cells. Format: cell-based. As to conditions: 0.3 μM or 3.0 μM, 24 hours. Here is the method: (A) SPL gene expression. HEK293 cells were co-transfected with a human SPL luciferase reporter construct and the sea pansy luciferase reporter as a control for transfection efficiency. Twenty-four hours after transfection, cells were treated with 0.3 μM FTY720, 3.0 μM FTY720 or vehicle and incubated for another 24 hours at 37° C. Luciferase activity was then determined as a measure of expression, as described in Experimental Methods. Values shown are luciferase activity normalized to sea pansy luciferase; (B) SPL protein expression. Thymic extracts from control mice (time 0) and mice treated with FTY720 for 24 hours were evaluated for SPL protein expression by immunoblotting. Actin was used as a loading control.
SPL expression: To evaluate the effect of FTY720 and FTY720-P on SPL gene expression, HEK293 cells were treated for 30 minutes with 3 μM of either drug, followed by transfection with pSPL-BamHI, a human SPL-luciferase reporter construct. After 48 hours, reporter expression was determined by luciferase activity as described (Oskouian et al., (2005) J Biol Chem 280, 18403-18410)). Western blotting of mouse tissue extracts was performed using a 1:2000 dilution of polyclonal sera raised against the murine SPL C-terminal peptide: (NH2)—V-T-Q-G-N-Q-M-N-G-S—P—K—P—R—(COOH). [SEQ ID NO:11] […]

Where [2] appears, read: 1 mg/kg FTY720 intraperitoneal, FVB mice, thymus.

One may read the inhibition as the change of the read-out against control, counted positive when it falls.

On to `CCCCCCCCc1ccc(CCC(N)(CO)CO)cc1` [FTY720], for which the “earliest time at which inhibition of SPL was noted” value at SPL (setting [2]) is 12 h. On SPL (setting [2]), the “time by which SPL inhibition began to reverse” value was ≤ 48 h. Also, the entries for the “SPL enzyme inhibition in tissue homogenates” value at SPL (10 nmol substrate (standard assay conditions)), on SPL (40 nmol unlabeled substrate) and at SPL (2-fold increase in unlabeled DHS1P substrate) were 21%, 25% and 14%, respectively. For the same compound, at SPL (mouse, ip, 1 mg/kg FTY720 intraperitoneal, FVB mice, thymus, at 36 hours, read-out: peak inhibition of SPL activity), the inhibition at 1 mg/kg was ~40%. In assay [1], the “SPL gene expression (luciferase activity normalized to sea pansy luciferase)” value is given as “not affected”.

These data come from patent US8124111B2, “Immunomodulation by altering sphingosine 1-phosphate lyase (SPL) activity” (Children's Hospital & Research Center at Oakland, priority 2005, dated 2012).
